In US9868737B2, “Pyridino[1,2-A]pyrimidone analogue used as MTOR/P13K inhibitor” (CISEN PHARMACEUTICAL CO., LTD., priority 2014, dated 2018):
Where two headings read alike, the source gives them in different places.

System: MCF-7 cells
Assay: In vitro test of cell activity (MCF-7 cells, insulin stimulation, ELISA-One fluorescence)
Format: cell-based
Conditions: Homo sapiens, MCF7, MCF-7 cells; for inhibition at 0.5 µM: conc. 0.5 μM; for inhibition at 0.25 µM: conc. 0.25 μM; for inhibition at 1 µM: conc. 1 μM
Procedure: Example In Vitro Tests of Cell Activities Experimental Steps and Methods:
1) MCF-7 cells were inoculated at the density of 2.5×10^4 cells/well into 96-well plates (the culture medium used should be a complete culture medium containing 10% FBS).
2) On the next day, the medium in each well was drawn out. A certain concentration (preliminary screening) or a series of concentration (IC50 test) of compounds were dissolved in a culture medium without serum and added to the 96-well plates to culture cells for 2 hours.
3) Insulin was dissolved in a culture medium without serum, added to the cultured cells and incubated for 30 minutes, wherein the final concentration of insulin was […].
4) A lysis solution was prepared according to the following method during the waiting period for the reaction:
a) Enhancer solution was removed from the refrigerator to melt in advance.
b) Enhancer solution was diluted 10 times with the 5× Lysis Buffer to give a concentrated lysis solution.
c) The concentrated lysis solution was diluted 5 times with double distilled water to give the lysis solution.
5) The medium in each well was completely removed and each well was quickly rinsed with PBS once.
6) 150 μl of the freshly prepared lysis solution was added to each well and shaked at room temperature for 10 minutes.
7) After confirming that all cells were detached, the lysis solution together with the cell fragments was transferred into a 1.5 ml tube.
8) The tube was shaked on vortes mixer to make the lysis solution and cells mix completely and then the mixture was centrifugated at 4° C. under 12000 g for 10 minutes.
9) The number of strips of ELISA-one micro-well plate that is required was calculated. The needless strips were removed from the frame, put back into the storage bag and sealed. Before the strips of micro-well plate were used, 200 μl of double distilled water was used to rinse each well to remove preservative.
10) 50 μl of antibody mixture was added to each well. (The antibody mixture solution was prepared by mixing the medium antibody reagent and the enzyme labeled antibody reagent with an equal proportion. The preparation of antibody mixture didn't need vortex.)
11) 25 μl of cell lysates was added to each well of ELISA-One micro-well plate. The micro-well plate was covered with adhesive sealing film and incubated on a micro-well plate oscillation instrument at room temperature for 1 hour.
12) Each well was rinsed with 150 μl of 1× rinsing buffer 3 times. After the last rinsing, the rinsing buffer in the well was completely removed. If necessary, the 1× rinsing buffer could be allowed to stay in the micro-well plate for up to 30 minutes so that the substrate mixed solution could be prepared during such time period.
13) The substrate mixed solution should be prepared just before each use, 10 μl of the substrate mixed solution was added to each well and the micro-well plate was sealed with tin-foil and incubated on the micro-well plate oscillation instrument at room temperature for 10 minutes.
14) 10 μl of stop solution was added to each well and mixed slightly (5-10 seconds) on the micro-well plate oscillation instrument.
15) The corresponding ELISA-One filter group was assembled and used to read the fluorescence signal intensity.

COc1ncc(-c2ccc3ncc(N)c(=O)n3c2)cc1NS(=O)(=O)c1ccc(F)cc1Cl [compound 88]
inhibition at 0.5 µM (read-out: % inhibition AKT): 94.8%
inhibition at 0.5 µM (read-out: % inhibition p70s6k): 91%
IC50 (read-out: IC50 p-AKT): ≤ 50 nM
IC50 (read-out: IC50 p-p70S6K): 100 to 250 nM

COc1ncc(-c2ccc3nccc(=O)n3c2C)cc1NS(=O)(=O)c1ccc(C#N)cc1 [compound 59]
inhibition at 0.5 µM (read-out: % inhibition AKT): 59.7%
inhibition at 0.5 µM (read-out: % inhibition p70s6k): 26.5%

COc1ncc(-c2ccc3ncc(OCC(C)(C)OC)c(=O)n3c2)cc1NS(=O)(=O)c1sc(C)nc1C [compound 209]
IC50 (read-out: IC50 p-AKT): ≤ 50 nM

COc1ncc(-c2ccc3ncc(Cl)c(=O)n3c2)cc1NS(=O)(=O)c1ccc(F)cc1 [compound 146]
inhibition at 0.25 µM (read-out: % inhibition AKT): 77.6%
inhibition at 0.25 µM (read-out: % inhibition p70s6k): 83.7%

COc1ncc(-c2ccc3ncc(Cl)c(=O)n3c2)cc1NS(=O)(=O)c1sc(Cl)nc1C [compound 168]
IC50 (read-out: IC50 p-AKT): ≤ 50 nM

COCCOc1cnc2ccc(-c3cnc(OC)c(NS(=O)(=O)c4ccc(N)nc4C)c3)cn2c1=O [compound 190]
IC50 (read-out: IC50 p-AKT): ≤ 50 nM

COCCOc1cnc2ccc(-c3cnc(OC)c(NS(=O)(=O)c4cc(Cl)c(F)cc4F)c3)cn2c1=O [compound 273]
IC50 (read-out: IC50 p-AKT): 100 to 250 nM

COc1ncc(-c2cn3c(=O)ccnc3cn2)cc1NS(=O)(=O)c1c(F)cccc1F [compound 46]
inhibition at 0.5 µM (read-out: % inhibition AKT): 60.3%
inhibition at 0.5 µM (read-out: % inhibition p70s6k): 13.3%

COc1ncc(-c2ccc3ncc(OCC4(C)COC4)c(=O)n3c2)cc1NS(=O)(=O)c1sc(C)nc1C [compound 197]
IC50 (read-out: IC50 p-AKT): ≤ 50 nM

COc1ncc(-c2ccc3ncc(OC4COC4)c(=O)n3c2)cc1NS(=O)(=O)c1sc(C)nc1C [compound 203]
IC50 (read-out: IC50 p-AKT): ≤ 50 nM

COc1ncc(-c2ccc3ncc(OC)c(=O)n3c2)cc1NS(=O)(=O)c1sc(C)nc1C [compound 111]
IC50 (read-out: IC50 p-AKT): ≤ 50 nM

CCOc1ncc(-c2ccc3nccc(=O)n3c2)cc1NS(=O)(=O)c1ccccc1F [compound 29]
inhibition at 1 µM (read-out: % inhibition AKT): 59.6%
inhibition at 1 µM (read-out: % inhibition p70s6k): 26.5%

COCCOc1cnc2ccc(-c3cnc(OC)c(NS(=O)(=O)c4sc(Cl)cc4C)c3)cn2c1=O [compound 196]
IC50 (read-out: IC50 p-AKT): ≤ 50 nM

COc1ncc(-c2ccc3ncc(C)c(=O)n3c2)cc1NS(=O)(=O)c1ccccc1F [compound 84]
inhibition at 0.5 µM (read-out: % inhibition AKT): 93.8%
inhibition at 0.5 µM (read-out: % inhibition p70s6k): 88.7%
IC50 (read-out: IC50 p-AKT): ≤ 50 nM
IC50 (read-out: IC50 p-p70S6K): 50 to 100 nM

COc1ncc(-c2ccc3nccc(=O)n3c2)cc1NS(=O)(=O)c1sccc1Cl [compound 34]
inhibition at 0.5 µM (read-out: % inhibition AKT): 97%
inhibition at 0.5 µM (read-out: % inhibition p70s6k): 95.6%
IC50 (read-out: IC50 p-AKT): ≤ 50 nM
IC50 (read-out: IC50 p-p70S6K): 50 to 100 nM

COc1ncc(-c2ccc3nccc(=O)n3c2)cc1NS(=O)(=O)c1ccc(Cl)cc1F [compound 27]
inhibition at 1 µM (read-out: % inhibition AKT): 94.8%
inhibition at 1 µM (read-out: % inhibition p70s6k): 93.5%

COc1ncc(-c2ccc3nccc(=O)n3c2)cc1NS(=O)(=O)c1ccccc1C [compound 20]
inhibition at 1 µM (read-out: % inhibition AKT): 93.8%
inhibition at 1 µM (read-out: % inhibition p70s6k): 89.9%
IC50 (read-out: IC50 p-AKT): ≤ 50 nM
IC50 (read-out: IC50 p-p70S6K): 100 to 250 nM

COc1ncc(-c2ccc3ncc(Cl)c(=O)n3c2)cc1NS(=O)(=O)c1c(F)cccc1F [compound 148]
inhibition at 0.25 µM (read-out: % inhibition AKT): 88.9%
inhibition at 0.25 µM (read-out: % inhibition p70s6k): 86.3%
IC50 (read-out: IC50 p-AKT): 50 to 100 nM
IC50 (read-out: IC50 p-p70S6K): 50 to 100 nM

COc1ncc(-c2ccc3ncc(Cl)c(=O)n3c2)cc1NS(=O)(=O)c1ccccc1F [compound 137]
inhibition at 0.5 µM (read-out: % inhibition AKT): 93.3%
inhibition at 0.5 µM (read-out: % inhibition p70s6k): 87.1%
IC50 (read-out: IC50 p-AKT): ≤ 50 nM
IC50 (read-out: IC50 p-p70S6K): 100 to 250 nM

COCCOc1cnc2ccc(-c3cnc(OC)c(NS(=O)(=O)c4cc(F)c(F)cc4Cl)c3)cn2c1=O [compound 266]
IC50 (read-out: IC50 p-AKT): 100 to 250 nM

COc1ncc(-c2ccc3ncc(Cl)c(=O)n3c2)cc1NS(=O)(=O)c1ncccc1Cl [compound 159]
inhibition at 0.25 µM (read-out: % inhibition AKT): 68.6%
inhibition at 0.25 µM (read-out: % inhibition p70s6k): 84.8%
IC50 (read-out: IC50 p-AKT): 100 to 250 nM
IC50 (read-out: IC50 p-p70S6K): 100 to 250 nM

COc1ncc(-c2ccc3ncc(Cl)c(=O)n3c2)cc1NS(=O)(=O)c1cnc(Cl)s1 [compound 160]
inhibition at 0.25 µM (read-out: % inhibition AKT): 61.9%
inhibition at 0.25 µM (read-out: % inhibition p70s6k): 71.6%

COc1ncc(-c2ccc3ncc(Cl)c(=O)n3c2)cc1NS(=O)(=O)c1[nH]c(C)nc1C [compound 165]
inhibition at 0.25 µM (read-out: % inhibition AKT): 49.5%
inhibition at 0.25 µM (read-out: % inhibition p70s6k): 63.7%

COc1ncc(-c2ccc3ncc(OCC4CCOCC4)c(=O)n3c2)cc1NS(=O)(=O)c1sc(C)nc1C [compound 198]
IC50 (read-out: IC50 p-AKT): ≤ 50 nM

COc1ncc(-c2ccc3ncc(OCC4COC4)c(=O)n3c2)cc1NS(=O)(=O)c1cccc(C)c1 [compound 248]
IC50 (read-out: IC50 p-AKT): 50 to 100 nM

COc1ncc(-c2ccc3ncc(N)c(=O)n3c2)cc1NS(=O)(=O)c1ccccc1Cl [compound 91]
inhibition at 0.5 µM (read-out: % inhibition AKT): 94.6%
inhibition at 0.5 µM (read-out: % inhibition p70s6k): 89.2%
IC50 (read-out: IC50 p-AKT): ≤ 50 nM
IC50 (read-out: IC50 p-p70S6K): 50 to 100 nM

COc1ncc(-c2ccc3ncc(Cl)c(=O)n3c2)cc1NS(=O)(=O)c1cnc(C)n1C [compound 154]
inhibition at 0.25 µM (read-out: % inhibition AKT): 85.4%
inhibition at 0.25 µM (read-out: % inhibition p70s6k): 92.6%
IC50 (read-out: IC50 p-AKT): 100 to 250 nM
IC50 (read-out: IC50 p-p70S6K): 50 to 100 nM

COc1ncc(-c2ccc3ncc(OCCCF)c(=O)n3c2)cc1NS(=O)(=O)c1sc(C)nc1C [compound 201]
IC50 (read-out: IC50 p-AKT): ≤ 50 nM

COc1ncc(-c2ccc3ncc(N)c(=O)n3c2)cc1NS(=O)(=O)c1sc(N)nc1C [compound 94]
IC50 (read-out: IC50 p-AKT): ≤ 50 nM

COCCOc1cnc2ccc(-c3cnc(OC)c(NS(=O)(=O)C4CCCCC4)c3)cn2c1=O [compound 212]
IC50 (read-out: IC50 p-AKT): > 250 nM

COc1ncc(-c2ccc3ncc(Cl)c(=O)n3c2)cc1NS(=O)(=O)c1nc(C)c(C)s1 [compound 157]
inhibition at 0.25 µM (read-out: % inhibition AKT): 79.2%
inhibition at 0.25 µM (read-out: % inhibition p70s6k): 90.8%
IC50 (read-out: IC50 p-AKT): ≤ 50 nM
IC50 (read-out: IC50 p-p70S6K): 50 to 100 nM

COCCOc1ncc(-c2ccc3ncc(Cl)c(=O)n3c2)cc1NS(=O)(=O)c1ccc(F)cc1F [compound 231, N-[5-(3-chloro-4-oxo-4H-pyrido[1,2-a]pyrimidin-7-yl)-2-(2-methoxy-ethoxy)-pyridin-3-yl]-2,4-difluorobenzsulfamide]
IC50 (read-out: IC50 p-AKT): > 250 nM

COc1ncc(-c2cn3c(=O)ccnc3cc2F)cc1NS(=O)(=O)c1ccccc1F [compound 113]
inhibition at 0.5 µM (read-out: % inhibition AKT): -7.6%
inhibition at 0.5 µM (read-out: % inhibition p70s6k): 4.6%

COc1ncc(-c2ccc3ncc(OCC4COC4)c(=O)n3c2)cc1NS(=O)(=O)c1sc(C)nc1C [compound 185]
IC50 (read-out: IC50 p-AKT): ≤ 50 nM

COc1ncc(-c2ccc3ncc(Cl)c(=O)n3c2)cc1NS(=O)(=O)c1ccccc1Cl [compound 136]
inhibition at 0.5 µM (read-out: % inhibition AKT): 95.5%
inhibition at 0.5 µM (read-out: % inhibition p70s6k): 87.2%
IC50 (read-out: IC50 p-AKT): ≤ 50 nM
IC50 (read-out: IC50 p-p70S6K): 50 to 100 nM

COc1ncc(-c2cn3c(=O)ccnc3cc2F)cc1NS(=O)(=O)c1c(F)cccc1F [compound 114]
inhibition at 0.5 µM (read-out: % inhibition AKT): 53%
inhibition at 0.5 µM (read-out: % inhibition p70s6k): -1.2%

COc1ncc(-c2cn3c(=O)ccnc3cn2)cc1NS(=O)(=O)c1ccc(C)nc1 [compound 45]
inhibition at 0.5 µM (read-out: % inhibition AKT): 15.2%
inhibition at 0.5 µM (read-out: % inhibition p70s6k): -1%

CCOc1ncc(-c2ccc3nccc(=O)n3c2)cc1NS(=O)(=O)c1ccc(F)cc1F [compound 15]
inhibition at 1 µM (read-out: % inhibition AKT): 93.3%
inhibition at 1 µM (read-out: % inhibition p70s6k): 91.7%

COc1ncc(-c2ccc3ncc(Cl)c(=O)n3c2)cc1NS(=O)(=O)c1cccnc1C [compound 164]
inhibition at 0.25 µM (read-out: % inhibition AKT): 79.4%
inhibition at 0.25 µM (read-out: % inhibition p70s6k): 89.6%
IC50 (read-out: IC50 p-AKT): ≤ 50 nM
IC50 (read-out: IC50 p-p70S6K): 50 to 100 nM
